Here are results for four compounds from BindingDB's records for PubMed 7791120 (Hospital Saint-Antoine, 1995).

Where “and” joins values, the source holds several entries; their conditions need not be identical. Equal entries are not always repeated.

For the assay, the target named is Neurotensin (Cavia porcellus, UniProt P32560).

Turning to `COc1cccc(OC)c1-c1cc(C(=O)NC2(C(=O)O)C3CC4CC(C3)CC2C4)nn1-c1ccnc2cc(Cl)ccc12` (centres undefined), the inhibitory constant (Ki) – broadly, the equilibrium dissociation constant of an inhibitor or competing ligand from its target – was 0.99 nM and 2.5 nM.
Then `COc1cccc(OC)c1-c1cc(C(=O)N[C@H](C(=O)O)C2CCCCC2)nn1-c1ccnc2cc(Cl)ccc12`, with 1.7 nM and 4.5 nM.
Then `CCC(C)C(N)C(=O)C(C)(CC(=O)C(N)CCCCN)C(C(=O)C(N)Cc1ccc(O)cc1)(C(=O)C1CCCN1)C(N)(C(=O)O)C(=O)C(N)C(C)CC` (centres undefined) [NSC_3025353], with 1600 nM.
Then `COc1cccc(OC)c1-c1cc(C(=O)N[C@@H](C(=O)O)C2CCCCC2)nn1-c1ccnc2cc(Cl)ccc12` [SR 49711], with 2000 nM and 2100 nM.
